Results as given in US10335409B2 (priority 2012, dated 2019).
Read-outs that look alike come from different tables or passages of the source.

Key:
[1] = test system: genotype 4a (ED43) stable HCV replicon in Huh-7-derived cells; assay: Stable subgenomic HCV replicon EC50, genotype 4a (Renilla luciferase); type: cell-based, hepatitis C virus; conditions: 72 h, read-out: EC50 4A RLUC
Procedure, shortened: (§1)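 Compounds, three-fold diluted, were applied to Huh-7-derived cells harbouring luciferase replicons (genotype 1a H77, 1b Con1, 2a JFH-1, 4a ED43, with strain-specific adaptive mutations). Seventy-two hours later, intracellular replication was gauged by Renilla luciferase activity and EC50 derived by regression.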

[2] = test system: genotype 1b NS3/4a protease inhibitor resistant variant D168A transient HCV replicon in Huh-7-derived cells; assay: Transient-transfected HCV replicon EC50, genotype 1b D168A; type: cell-based, hepatitis C virus; conditions: 72 h
[3] = test system: genotype 3a (S52) stable HCV replicon in Huh-7-derived cells; assay: Stable subgenomic HCV replicon EC50, genotype 3a (Renilla luciferase); type: cell-based, hepatitis C virus; conditions: 72 h, read-out: EC50 3A RLUC
[4] = test system: genotype 2a (JFH-1) stable HCV replicon in Huh-7-derived cells; assay: Stable subgenomic HCV replicon EC50, genotype 2a (Renilla luciferase); type: cell-based, hepatitis C virus; conditions: stable replicon genotype 2a, 72 h, read-out: EC50 2A RLUC
Procedure, shortened: as §1

[5] = test system: genotype 1a (H77) stable HCV replicon in Huh-7-derived cells; assay: Stable subgenomic HCV replicon EC50, genotype 1a (Renilla luciferase); type: cell-based, hepatitis C virus; conditions: stable replicon genotype 1a, 72 h, read-out: EC50 1A RLUC
Procedure, shortened: as §1

[6] = test system: genotype 1b (Con1) stable HCV replicon in Huh-7-derived cells; assay: Stable subgenomic HCV replicon EC50, genotype 1b (Renilla luciferase); type: cell-based, hepatitis C virus; conditions: stable replicon genotype 1b, 72 h, read-out: EC50 1B RLUC
Procedure, shortened: as §1

[7] = test system: genotype 1b (Con1) wild type transient HCV replicon in Huh-7-derived cells; assay: Transient-transfected HCV replicon EC50, genotype 1b wild type; type: cell-based, hepatitis C virus; conditions: transient-transfected replicon genotype 1b wild type, 72 h, read-out: EC50 1B WT
[8] = target: HCV NS3 protease domain genotype 3a (Hepatitis C virus genotype 3a, UniProt Q81258); assay: Ki determination, NS3 protease genotype 3a (fluorogenic depsipeptide substrate); type: biochemical; conditions: 200 pM enzyme, NS4A peptide
Excerpt: Purified NS3 protease domain (amino acids 1-181) of the genotype 1b and 3a virus were generated as above. The internally quenched fluorogenic depsipeptide substrate Ac-DED(Edans)-EEAbuΨ[COO]ASK(Dabcyl)-NH2 and a synthetic peptide containing the hydrophobic core residues of the NS4A protein cofactor ([…]; NS4A peptide) were obtained from Anaspec, Inc. (San Jose, Calif.). Other chemicals and biochemicals were of reagent grade or better and were purchased from standard suppliers.
Reactions were run at room temperature in buffer consisting of 50 mM HEPES, 40% glycerol, 0.05% Triton X-100, 10 mM DTT, and 10% DMSO. The final assay solutions contained 50 pM NS3 genotype 1 b protease or 200 pM genotype 3a protease, 20 μM NS4A peptide, and 4 μM substrate (genotype 1b) or 2 μM substrate (genotype 3a). Inhibitor concentrations varied from 100 nM to 5 pM in 3-fold dilutions, and no-inhibitor controls were included.
Compound dilutions were made in DMSO at 20× final concentration. Reaction mixtures were prepared in 96-well assay plates. A solution of enzyme and NS4A peptide in assay buffer (25 μL volume with both reagents at 4× final concentration) was mixed with 45 μL assay buffer and 5 μL of either inhibitor or DMSO, and pre-incubated at room temperature for 1 hour. The reaction was started by addition of 25 μL substrate solution at 4× final concentration. Plates were mixed vigorously for 5-10 seconds and reactions were allowed to proceed for 90 minutes, fluorescence was measured every 30 s between 90 and 120 minutes reaction time using a Tecan InfiniTe M1000 or PerkinElmer Envision multimode plate reader with an excitation wavelength of 340 nm and an emission wavelength of 490 nm.
Rates were calculated from the progress curves at steady state, in the time frame of 90-120 minutes after addition of substrate. To determine the Ki, rates were plotted as a function of inhibitor concentration, and the data were fit with equation 1 (Morrison, J. F., Biochimica et Biophysica Acta 1969, 185, 269-286) to calculate Ki^app using GraphPad Prism 5. Active fraction of enzyme was determined by active site titration with known potent inhibitors. Ki was calculated from Ki^app/(1+[[S]/Km]).

[9] = test system: genotype 1a (H77) wild type transient HCV replicon in Huh-7-derived cells; assay: Transient-transfected HCV replicon EC50, genotype 1a wild type; type: cell-based, hepatitis C virus; conditions: transient-transfected replicon genotype 1a wild type, 72 h, read-out: EC50 1A WT
[10] = test system: genotype 1a NS3/4a protease inhibitor resistant variant R155K transient HCV replicon in Huh-7-derived cells; assay: Transient-transfected HCV replicon EC50, genotype 1a R155K; type: cell-based, hepatitis C virus; conditions: 72 h
[11] = stable replicon genotype 4a, Renilla luciferase
[12] = transient-transfected replicon genotype 1b D168A resistant variant, read-out: EC50 1B D168A
[13] = stable replicon genotype 3a, Renilla luciferase
[14] = transient-transfected replicon genotype 1a R155K resistant variant, read-out: EC50 1A R155K

Sequence of HCV NS3 protease domain genotype 3a (Q81258 whole entry, looked up, the tested form may be a part): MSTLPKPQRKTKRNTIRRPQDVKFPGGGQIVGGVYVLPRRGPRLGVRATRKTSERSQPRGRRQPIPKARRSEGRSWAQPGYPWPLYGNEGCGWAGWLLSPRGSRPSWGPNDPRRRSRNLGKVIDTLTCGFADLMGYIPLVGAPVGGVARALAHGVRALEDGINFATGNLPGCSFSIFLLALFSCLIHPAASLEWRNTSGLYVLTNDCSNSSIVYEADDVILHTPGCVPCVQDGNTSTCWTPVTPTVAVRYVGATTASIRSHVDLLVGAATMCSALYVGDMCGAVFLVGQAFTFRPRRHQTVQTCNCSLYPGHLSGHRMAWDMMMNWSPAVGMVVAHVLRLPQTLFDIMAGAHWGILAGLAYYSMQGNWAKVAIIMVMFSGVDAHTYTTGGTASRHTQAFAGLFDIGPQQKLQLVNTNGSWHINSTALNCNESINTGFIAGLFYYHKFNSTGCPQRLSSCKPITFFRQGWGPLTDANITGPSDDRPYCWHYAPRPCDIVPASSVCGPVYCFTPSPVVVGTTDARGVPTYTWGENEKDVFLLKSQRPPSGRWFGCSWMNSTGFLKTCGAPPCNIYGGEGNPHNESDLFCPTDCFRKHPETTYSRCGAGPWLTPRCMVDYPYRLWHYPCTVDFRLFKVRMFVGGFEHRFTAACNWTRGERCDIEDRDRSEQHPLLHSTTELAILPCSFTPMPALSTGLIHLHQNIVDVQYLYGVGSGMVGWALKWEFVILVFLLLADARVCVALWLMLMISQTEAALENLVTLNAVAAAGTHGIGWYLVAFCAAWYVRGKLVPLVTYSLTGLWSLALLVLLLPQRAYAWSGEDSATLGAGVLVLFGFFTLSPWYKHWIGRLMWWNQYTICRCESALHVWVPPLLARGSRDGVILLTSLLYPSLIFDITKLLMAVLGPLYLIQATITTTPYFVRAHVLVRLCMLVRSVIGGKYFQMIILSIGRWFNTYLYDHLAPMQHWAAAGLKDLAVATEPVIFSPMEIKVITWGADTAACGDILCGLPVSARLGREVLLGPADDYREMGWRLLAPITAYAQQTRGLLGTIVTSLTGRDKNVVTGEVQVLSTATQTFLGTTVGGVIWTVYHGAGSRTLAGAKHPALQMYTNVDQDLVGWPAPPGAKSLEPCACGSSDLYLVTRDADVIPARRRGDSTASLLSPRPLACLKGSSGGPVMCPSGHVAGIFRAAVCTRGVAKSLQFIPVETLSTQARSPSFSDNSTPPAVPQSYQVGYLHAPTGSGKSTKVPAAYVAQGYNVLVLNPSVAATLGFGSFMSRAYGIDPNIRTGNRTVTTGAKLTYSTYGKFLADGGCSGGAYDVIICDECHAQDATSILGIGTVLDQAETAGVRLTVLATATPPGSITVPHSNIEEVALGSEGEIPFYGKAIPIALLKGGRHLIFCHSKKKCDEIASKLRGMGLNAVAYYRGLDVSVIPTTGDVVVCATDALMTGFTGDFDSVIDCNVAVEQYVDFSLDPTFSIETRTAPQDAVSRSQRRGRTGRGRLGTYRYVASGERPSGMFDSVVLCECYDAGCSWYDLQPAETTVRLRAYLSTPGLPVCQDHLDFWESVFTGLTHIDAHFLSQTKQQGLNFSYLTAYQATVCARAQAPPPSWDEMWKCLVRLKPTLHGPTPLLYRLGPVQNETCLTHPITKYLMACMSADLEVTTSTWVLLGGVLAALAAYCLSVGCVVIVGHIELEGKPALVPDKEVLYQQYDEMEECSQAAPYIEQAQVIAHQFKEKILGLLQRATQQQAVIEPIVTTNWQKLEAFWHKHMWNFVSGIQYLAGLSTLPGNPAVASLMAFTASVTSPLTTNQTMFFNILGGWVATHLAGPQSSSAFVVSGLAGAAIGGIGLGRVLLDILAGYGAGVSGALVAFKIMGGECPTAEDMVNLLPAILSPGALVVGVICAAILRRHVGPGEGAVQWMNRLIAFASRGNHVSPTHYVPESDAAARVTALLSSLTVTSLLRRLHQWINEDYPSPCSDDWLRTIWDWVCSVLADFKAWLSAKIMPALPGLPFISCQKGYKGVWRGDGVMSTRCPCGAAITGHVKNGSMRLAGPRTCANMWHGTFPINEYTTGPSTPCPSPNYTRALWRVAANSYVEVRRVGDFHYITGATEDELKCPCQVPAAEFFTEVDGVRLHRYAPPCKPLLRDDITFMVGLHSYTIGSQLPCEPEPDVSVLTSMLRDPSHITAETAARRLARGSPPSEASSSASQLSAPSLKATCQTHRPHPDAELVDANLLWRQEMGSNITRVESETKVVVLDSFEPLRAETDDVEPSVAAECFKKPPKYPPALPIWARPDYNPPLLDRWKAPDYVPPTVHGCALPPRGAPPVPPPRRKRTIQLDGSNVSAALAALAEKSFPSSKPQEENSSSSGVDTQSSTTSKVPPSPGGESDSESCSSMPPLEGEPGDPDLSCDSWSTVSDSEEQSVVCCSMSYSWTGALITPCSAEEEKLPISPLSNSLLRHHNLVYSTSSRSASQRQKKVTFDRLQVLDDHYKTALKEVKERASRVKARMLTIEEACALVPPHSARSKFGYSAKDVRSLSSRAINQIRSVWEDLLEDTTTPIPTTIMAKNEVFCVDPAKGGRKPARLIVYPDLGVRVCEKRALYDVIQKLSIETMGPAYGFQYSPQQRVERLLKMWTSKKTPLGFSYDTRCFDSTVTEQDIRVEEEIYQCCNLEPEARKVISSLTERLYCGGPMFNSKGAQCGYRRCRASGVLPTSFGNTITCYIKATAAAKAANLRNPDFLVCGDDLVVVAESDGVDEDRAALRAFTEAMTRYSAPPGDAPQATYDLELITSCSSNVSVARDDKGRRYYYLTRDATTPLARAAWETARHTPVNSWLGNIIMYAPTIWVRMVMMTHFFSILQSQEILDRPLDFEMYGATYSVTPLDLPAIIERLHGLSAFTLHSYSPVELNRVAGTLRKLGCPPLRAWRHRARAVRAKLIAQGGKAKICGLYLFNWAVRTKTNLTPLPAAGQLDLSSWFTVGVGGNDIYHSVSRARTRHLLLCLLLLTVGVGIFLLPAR

Structure (SMILES)	EC50 [1, 11]	EC50 [2, 12]	EC50 [3, 13]	EC50 [4]	EC50 [5]	EC50 [6]	EC50 [7]	Ki [8]	EC50 [9]	EC50 [10, 14]	EC50 ([1]; Hepatitis C virus)	EC50 ([3]; Hepatitis C virus)	EC50 ([4]; Hepatitis C virus)	EC50 ([5]; Hepatitis C virus)	EC50 ([6]; Hepatitis C virus)	EC50 ([2]; Hepatitis C virus, read-out: EC50 1B D168A, transient-transfected replicon genotype 1b D168A resistant variant, 72 h)	EC50 ([7]; Hepatitis C virus)	EC50 ([9]; Hepatitis C virus)	EC50 ([10]; Hepatitis C virus, read-out: EC50 1A R155K, transient-transfected replicon genotype 1a R155K resistant variant, 72 h)
CC[C@@H]1[C@@H]2CN(C(=O)[C@H](C(C)(C)C)NC(=O)O[C@]3(C(F)(F)F)CCCC3CCCCCc3nc4ccc(OC)cc4nc3O2)[C@@H]1C(=O)N[C@]1(C(=O)NS(=O)(=O)C2(C)CC2)C[C@H]1C(F)F (stereo partly drawn) [Example 9, (7S,10S,11S,12R)-7-tert-butyl-N-[(1R,2R)-2-(difluoromethyl)-1-{[(1-methylcyclopropyl)sulfonyl]carbamoyl}cyclopropyl]-11-ethyl-16-methoxy-5,8-dioxo-3aR-(trifluoromethyl)-1,2,3,3a,5,6,7,8,11,12,20,21,22,23,24,24a-hexadecahydro-10H-9,12-methanocyclopenta[18,19][1,10,3,6]dioxadiazacyclononadecino[11,12-b]quinoxaline-10-carboxamide]	11 nM	360 nM	1270 nM	23 nM	17 nM	7.9 nM	2.5 nM	0.59 nM	12 nM	208 nM									
CC[C@@H]1[C@@H]2CN(C(=O)[C@H](C(C)(C)C)NC(=O)O[C@@]3(C(F)(F)F)CCCC3CCCCCc3nc4ccc(OC)cc4nc3O2)[C@@H]1C(=O)N[C@]1(C(=O)NS(=O)(=O)C2(C)CC2)C[C@H]1C(F)F (stereo partly drawn) [Example 10, (7S,10S,11S,12R)-7-tert-butyl-N-[(1R,2R)-2-(difluoromethyl)-1-{[(1-methylcyclopropyl)sulfonyl]carbamoyl}cyclopropyl]-11-ethyl-16-methoxy-5,8-dioxo-3aS-(trifluoromethyl)-1,2,3,3a,5,6,7,8,11,12,20,21,22,23,24,24a-hexadecahydro-10H-9,12-methanocyclopenta[18,19][1,10,3,6]dioxadiazacyclononadecino[11,12-b]quinoxaline-10-carboxamide]	26 nM	493 nM	978 nM	49 nM	30 nM	22 nM	10 nM	0.52 nM	37 nM	131 nM									
CC[C@@H]1[C@@H]2CN(C(=O)[C@H](C(C)(C)C)NC(=O)O[C@]3(C(F)(F)F)CCC[C@H]3CCCCCc3nc4ccc(OC)cc4nc3O2)[C@@H]1C(=O)N[C@]1(C(=O)NS(=O)(=O)C2CC2)C[C@H]1C(F)F [Example 11, (7S,10S,11 S,12R)-7-tert-butyl-N-[(1R,2R)-1-[(cyclopropylsulfonyl)carbamoyl]-2-(difluoromethyl)cyclopropyl]-1-ethyl-16-methoxy-5,8-dioxo-3aR-(trifluoromethyl)-1,2,3,3a,5,6,7,8,11,12,20,21,22,23,24,24a-hexadecahydro-1 OH-9,12-methanocyclopenta[18,19][1,10,3,6]dioxadiazacyclononadecino[11,12-b]quinoxaline-10-carboxamide]	19 nM	605 nM	1160 nM	34 nM	28 nM	17 nM	9.4 nM	0.88 nM	20 nM	159 nM									
CC[C@@H]1[C@@H]2CN(C(=O)[C@H](C(C)(C)C)NC(=O)O[C@@]3(C(F)(F)F)CCC[C@H]3CCCCCc3nc4ccc(OC)cc4nc3O2)[C@@H]1C(=O)N[C@]1(C(=O)NS(=O)(=O)C2CC2)C[C@H]1C(F)F [Example 12, (7S,10S,11S,12R)-7-tert-butyl-N-[(1R,2R)-1-[(cyclopropylsulfonyl)carbamoyl]-2-(difluoromethyl)cyclopropyl]-11-ethyl-16-methoxy-5,8-dioxo-3aS-(trifluoromethyl)-1,2,3,3a,5,6,7,8,11,12,20,21,22,23,24,24a-hexadecahydro-10H-9,12-methanocyclopenta[18,19][1,10,3,6]dioxadiazacyclononadecino[11,12-b]quinoxaline-10-carboxamide]	21 nM	640 nM	2010 nM	25 nM	34 nM	18 nM	5.7 nM	1.2 nM	14 nM	283 nM									
COc1ccc2nc3c(nc2c1)O[C@H]1CN(C(=O)[C@H](C(C)(C)C)NC(=O)O[C@@H]2C[C@H]2CCCCC3)[C@H](C(=O)N[C@]2(C(=O)NS(=O)(=O)C3(C)CC3)C[C@H]2C(F)F)[C@@H]1C [Example 18, (1aR,5S,8S,9S,10R,22aR)-5-tert-butyl-N-[(1R,2R)-2-(difluoromethyl)-1-{[(1-methylcyclopropyl)sulfonyl]carbamoyl}cyclopropyl]-14-methoxy-9-methyl-3,6-dioxo-1,1a,3,4,5,6,9,10,18,19,20,21,22,22a-tetradecahydro-8H-7,10-methanocyclopropa[18,19][1,10 3,6]dioxadiazacyclononadecino[11,12-b]quinoxaline-8-carboxamide]								0.1 nM			2.8 nM	70 nM	5 nM	3.9 nM	2.6 nM				
COc1ccc2nc3c(nc2c1)O[C@H]1CN(C(=O)[C@H](C(C)(C)C)NC(=O)O[C@@H]2CCC[C@H]2CCCCC3)[C@H](C(=O)N[C@]2(C(=O)NS(=O)(=O)C3(C)CC3)C[C@H]2C(F)F)[C@@H]1C [Example 27, (3aR,7S10S,1S,12R,24aR)-7-tert-butyl-N-[(1R,2R)-2-(difluoromethyl)-1-{[(1-methylcyclopropyl)sulfonyl]carbamoyl}cyclopropyl]-16-methoxy-11-methyl-5,8-dioxo-1,2,3,3a,5,6,7,8,11,12,20,21,22,23,24,24a-hexadecahydro-10H-9,12-methanocyclopenta[18,19][1,10,3,6]dioxadiazacyclononadecino[11,12-b]quinoxaline-10-carboxamide]								0.08 nM			6.1 nM	266 nM	6.7 nM	6.6 nM	5.2 nM	70 nM	4.3 nM	6 nM	20 nM
